Data from PubChem BioAssay AID2060510 (Molecular Pharmacology Branch, DTP, NCI, 2025).
pIC50: −log10 of the molar value.

System: 439559-082-T-J2-PDC spheroids viability
Experiment: Anticancer human tumor 439559-082-T-J2-PDC patient-derived colon adenocarcinoma cell line growth inhibition [GQUAD]
Conditions: for pIC50: curve of first compound; for viability, T/C: stronger effect = lower value
Procedure, shortened: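 Multi-cell-type spheroids of tumor cells with HUVEC and mesenchymal stem cells, treated with drug combinations. Concentrations descend in half-log steps from near clinical Cmax, or from 10 microM where Cmax is unknown; viability read-out.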

[1] = second compound 0.0316 µM, first compound 0.0316 µM
[2] = second compound 0.0316 µM, first compound 0.1 µM
[3] = second compound 0.0316 µM, first compound 0.316 µM
[4] = second compound 0.0316 µM, first compound 1 µM
[5] = second compound 0.0316 µM, first compound 3.16 µM
[6] = second compound 0.0316 µM, first compound 10 µM
[7] = second compound 0.1 µM, first compound 0.0316 µM
[8] = second compound 0.1 µM, first compound 0.1 µM
[9] = second compound 0.1 µM, first compound 0.316 µM
[10] = second compound 0.1 µM, first compound 1 µM
[11] = second compound 0.1 µM, first compound 3.16 µM
[12] = second compound 0.1 µM, first compound 10 µM
[13] = second compound 0.316 µM, first compound 0.0316 µM
[14] = second compound 0.316 µM, first compound 0.1 µM
[15] = second compound 0.316 µM, first compound 0.316 µM
[16] = second compound 0.316 µM, first compound 1 µM
[17] = second compound 0.316 µM, first compound 3.16 µM
[18] = second compound 0.316 µM, first compound 10 µM
[19] = second compound 1 µM, first compound 0.0316 µM
[20] = second compound 1 µM, first compound 0.1 µM
[21] = second compound 1 µM, first compound 0.316 µM
[22] = second compound 1 µM, first compound 1 µM
[23] = second compound 1 µM, first compound 3.16 µM
[24] = second compound 1 µM, first compound 10 µM
[25] = second compound 3.16 µM, first compound 0.0316 µM
[26] = second compound 3.16 µM, first compound 0.1 µM
[27] = second compound 3.16 µM, first compound 0.316 µM
[28] = second compound 3.16 µM, first compound 1 µM
[29] = second compound 3.16 µM, first compound 3.16 µM
[30] = second compound 3.16 µM, first compound 10 µM
[31] = second compound 10 µM, first compound 0.0316 µM
[32] = second compound 10 µM, first compound 0.1 µM
[33] = second compound 10 µM, first compound 0.316 µM
[34] = second compound 10 µM, first compound 1 µM
[35] = second compound 10 µM, first compound 3.16 µM
[36] = second compound 10 µM, first compound 10 µM
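Further: spheroids exposed to the agents for 7 days before readout.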
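Wherever viability, T/C is given: percent of luminescence signal in DMSO vehicle wells taken as 100% viability.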

Q: Which results are given for `CC1COCCN1c1cc(C2(S(C)(=N)=O)CC2)nc(-c2ccnc3[nH]ccc23)n1` (stereo not drawn) + Cc1[nH]c2ccc(F)cc2c1-c1nc2c3cccnc3c3ncccc3c2[nH]1?
A: pIC50 (second compound 0.0316 µM): < 5.00; pIC50 (second compound 0.1 µM): < 5.00; pIC50 (second compound 0.316 µM): < 5.00; pIC50 (second compound 1 µM): < 5.00; pIC50 (second compound 3.16 µM): < 5.00; pIC50 (second compound 10 µM): < 5.00; viability, T/C [1]: 100%; viability, T/C [2]: 92.5%; viability, T/C [3]: 103%; viability, T/C [4]: 106%; viability, T/C [5]: 96.7%; viability, T/C [6]: 76.8%; viability, T/C [7]: 109%; viability, T/C [8]: 104%; viability, T/C [9]: 90.9%; viability, T/C [10]: 102%; viability, T/C [11]: 93.9%; viability, T/C [12]: 75.8%; viability, T/C [13]: 88.1%; viability, T/C [14]: 105%; viability, T/C [15]: 99.6%; viability, T/C [16]: 104%; viability, T/C [17]: 98.5%; viability, T/C [18]: 71.3%; viability, T/C [19]: 99.9%; viability, T/C [20]: 86.8%; viability, T/C [21]: 100%; viability, T/C [22]: 90.5%; viability, T/C [23]: 91.8%; viability, T/C [24]: 68.5%; viability, T/C [25]: 87.5%; viability, T/C [26]: 94.2%; viability, T/C [27]: 80.8%; viability, T/C [28]: 77.4%; viability, T/C [29]: 83.5%; viability, T/C [30]: 63.1%; viability, T/C [31]: 88%; viability, T/C [32]: 87.8%; viability, T/C [33]: 80.8%; viability, T/C [34]: 74.4%; viability, T/C [35]: 80.6%; viability, T/C [36]: 64.3%

Q: How did the pIC50 (second compound 0.0316 µM) turn out when `COc1ccc([C@@H](O)c2cc(-c3ncnc4cc(N5CCOCC5)ccc34)c(F)cc2Cl)nn1` + Cc1[nH]c2ccc(F)cc2c1-c1nc2c3cccnc3c3ncccc3c2[nH]1 was run?
A: < 5.00

Q: What about the pIC50 (second compound 0.1 µM) of the same compound?
A: < 5.00

Q: And the pIC50 (second compound 0.316 µM)?
A: < 5.00

Q: And the pIC50 (second compound 1 µM)?
A: < 5.00

Q: What about the pIC50 (second compound 3.16 µM) of the same compound?
A: < 5.00

Q: And the pIC50 (second compound 10 µM)?
A: < 5.00

Q: And the viability, T/C [1]?
A: 97.1%

Q: And the viability, T/C [2]?
A: 98%

Q: And the viability, T/C [3]?
A: 87.8%

Q: And the viability, T/C [4]?
A: 98.1%

Q: What about the viability, T/C [5] of the same compound?
A: 85%

Q: What about the viability, T/C [6] of the same compound?
A: 95.5%

Q: And the viability, T/C [7]?
A: 111%

Q: What about the viability, T/C [8] of the same compound?
A: 99.5%

Q: What about the viability, T/C [9] of the same compound?
A: 89%

Q: What about the viability, T/C [10] of the same compound?
A: 93.3%

Q: What about the viability, T/C [11] of the same compound?
A: 98%

Q: What about the viability, T/C [12] of the same compound?
A: 88.5%

Q: And the viability, T/C [13]?
A: 106%

Q: And the viability, T/C [14]?
A: 93.2%

Q: What about the viability, T/C [15] of the same compound?
A: 92.1%

Q: What about the viability, T/C [16] of the same compound?
A: 86.9%

Q: What about the viability, T/C [17] of the same compound?
A: 83.7%

Q: And the viability, T/C [18]?
A: 75.9%

Q: And the viability, T/C [19]?
A: 99.9%

Q: And the viability, T/C [20]?
A: 101%

Q: What about the viability, T/C [21] of the same compound?
A: 90.5%

Q: What about the viability, T/C [22] of the same compound?
A: 92.6%

Q: What about the viability, T/C [23] of the same compound?
A: 85.8%

Q: And the viability, T/C [24]?
A: 75.6%

Q: What about the viability, T/C [25] of the same compound?
A: 73.1%

Q: And the viability, T/C [26]?
A: 85.1%

Q: And the viability, T/C [27]?
A: 83.2%

Q: What about the viability, T/C [28] of the same compound?
A: 69%

Q: And the viability, T/C [29]?
A: 69.3%

Q: What about the viability, T/C [30] of the same compound?
A: 77.4%

Q: What about the viability, T/C [31] of the same compound?
A: 84.9%

Q: And the viability, T/C [32]?
A: 93.9%

Q: And the viability, T/C [33]?
A: 83.7%

Q: What about the viability, T/C [34] of the same compound?
A: 82%

Q: And the viability, T/C [35]?
A: 74.4%

Q: And the viability, T/C [36]?
A: 80.8%

Q: Which results are given for `Cc1cccc(N(C)C(=O)C2C(O)CCN2c2nc(C)cc(C(F)(F)F)c2C#N)c1` (stereo not drawn) + Cc1[nH]c2ccc(F)cc2c1-c1nc2c3cccnc3c3ncccc3c2[nH]1?
A: pIC50 (second compound 0.0316 µM): < 5.00; pIC50 (second compound 0.1 µM): < 5.00; pIC50 (second compound 0.316 µM): < 5.00; pIC50 (second compound 1 µM): < 5.00; pIC50 (second compound 3.16 µM): < 5.00; pIC50 (second compound 10 µM): < 5.00; viability, T/C [1]: 98.7%; viability, T/C [2]: 106%; viability, T/C [3]: 99.8%; viability, T/C [4]: 103%; viability, T/C [5]: 92.8%; viability, T/C [6]: 95.9%; viability, T/C [7]: 106%; viability, T/C [8]: 91.6%; viability, T/C [9]: 99.8%; viability, T/C [10]: 96.3%; viability, T/C [11]: 100%; viability, T/C [12]: 92.6%; viability, T/C [13]: 98.6%; viability, T/C [14]: 101%; viability, T/C [15]: 92.7%; viability, T/C [16]: 108%; viability, T/C [17]: 96.2%; viability, T/C [18]: 83.3%; viability, T/C [19]: 96.2%; viability, T/C [20]: 91.2%; viability, T/C [21]: 87.4%; viability, T/C [22]: 100%; viability, T/C [23]: 88.9%; viability, T/C [24]: 88.1%; viability, T/C [25]: 78.6%; viability, T/C [26]: 77.7%; viability, T/C [27]: 93.1%; viability, T/C [28]: 88.3%; viability, T/C [29]: 84.7%; viability, T/C [30]: 77%; viability, T/C [31]: 85.5%; viability, T/C [32]: 83.6%; viability, T/C [33]: 87.5%; viability, T/C [34]: 84.9%; viability, T/C [35]: 87%; viability, T/C [36]: 78.5%

Q: How did the pIC50 (second compound 0.0316 µM) turn out when `O=C(c1cc(Cc2n[nH]c(=O)c3ccccc23)ccc1F)N1CCN(C(=O)C2CC2)CC1` + Cc1[nH]c2ccc(F)cc2c1-c1nc2c3cccnc3c3ncccc3c2[nH]1 was run?
A: < 5.00

Q: And the pIC50 (second compound 0.1 µM)?
A: < 5.00

Q: And the pIC50 (second compound 0.316 µM)?
A: < 5.00

Q: And the pIC50 (second compound 1 µM)?
A: < 5.00

Q: And the pIC50 (second compound 3.16 µM)?
A: < 5.00

Q: What about the pIC50 (second compound 10 µM) of the same compound?
A: < 5.00

Q: And the viability, T/C [1]?
A: 100%

Q: And the viability, T/C [2]?
A: 110%

Q: And the viability, T/C [3]?
A: 91.5%

Q: What about the viability, T/C [4] of the same compound?
A: 96.8%

Q: What about the viability, T/C [5] of the same compound?
A: 102%

Q: And the viability, T/C [6]?
A: 96.3%

Q: What about the viability, T/C [7] of the same compound?
A: 103%

Q: What about the viability, T/C [8] of the same compound?
A: 104%

Q: And the viability, T/C [9]?
A: 94.9%

Q: What about the viability, T/C [10] of the same compound?
A: 90.5%

Q: What about the viability, T/C [11] of the same compound?
A: 103%

Q: What about the viability, T/C [12] of the same compound?
A: 100%

Q: And the viability, T/C [13]?
A: 103%

Q: What about the viability, T/C [14] of the same compound?
A: 99.3%

Q: What about the viability, T/C [15] of the same compound?
A: 105%

Q: What about the viability, T/C [16] of the same compound?
A: 102%

Q: What about the viability, T/C [17] of the same compound?
A: 107%

Q: And the viability, T/C [18]?
A: 89.9%

Q: What about the viability, T/C [19] of the same compound?
A: 105%

Q: What about the viability, T/C [20] of the same compound?
A: 102%

Q: What about the viability, T/C [21] of the same compound?
A: 98.3%

Q: What about the viability, T/C [22] of the same compound?
A: 99.3%

Q: What about the viability, T/C [23] of the same compound?
A: 105%

Q: And the viability, T/C [24]?
A: 89%

Q: And the viability, T/C [25]?
A: 90.8%

Q: What about the viability, T/C [26] of the same compound?
A: 79%

Q: And the viability, T/C [27]?
A: 92.7%

Q: What about the viability, T/C [28] of the same compound?
A: 89.9%

Q: What about the viability, T/C [29] of the same compound?
A: 98.8%

Q: What about the viability, T/C [30] of the same compound?
A: 87.3%

Q: What about the viability, T/C [31] of the same compound?
A: 88.2%

Q: What about the viability, T/C [32] of the same compound?
A: 87.1%

Q: What about the viability, T/C [33] of the same compound?
A: 86.2%

Q: And the viability, T/C [34]?
A: 76%

Q: What about the viability, T/C [35] of the same compound?
A: 90.5%

Q: And the viability, T/C [36]?
A: 89.5%
